Assay results as given in paper PMC9643506 (Scientific Reports, 2022).
Like-named read-outs stand apart in the source and are kept apart here. Non-standard residues stand in square brackets, D forms with d. Residues, ends and D or L forms follow the SMILES beside them. No end group written: not given here. d2Nal = N[C@H](Cc1ccc2ccccc2c1)C(=O)O; αMeF = C[C@](N)(Cc1ccccc1)C(=O)O

How the values were obtained:
[1] = tested on: SHP-77 cells; experiment: MTT cytotoxicity assay, SHP-77 cells; type: cell-based, human; settings: 24 h treatment, mean ± SEM, n = 3 wells per experiment, 2–3 independent experiments
Protocol: (§1) Cisplatin, a cytostatic drug commonly used for cancer chemotherapy, was used as a reference compound.
(§2) The colorimetric tetrazolium salt assay with 3-([…]-2-yl)-2,5-diphenyltetrazolium bromide (MTT) was used to evaluate the cytotoxicity potential of the antagonists BK in the cancer cell lines H4, U87-MG, and SHP-77 (see Supporting Information for details)[52].
(§3) Cell lines were seeded at a concentration of 5000 cells/well (H4) and 10000 cells/well (U87-MG, SHP-77) in 96-well plates and incubated for 24 hours. […] These compounds were dissolved in redistilled water and added to the cultures at a final concentration of 0.1%. Twenty-four hours after treatment with the drugs, the MTT assay was performed according to the procedure described previously.^52 MTT solution was added to each well (at a final concentration of 0.15 mg/mL) and then incubated at 37°C for 30 minutes. Formosan crystals were resolved and measured at 570 nm using a 96-well microplate reader (Thermo Lab system Multiscan Spectrum). […] Data were analyzed using GraphPad Prism 7.04 software. Statistical differences were calculated using a one-way analysis of variance (ANOVA) followed by Tukey’s posthoc test. Values of p < 0.05 were considered significant.

[2] = tested on: U87-MG cells; experiment: MTT cytotoxicity assay, U87-MG cells; type: cell-based, human; settings: 24 h treatment, mean ± SEM, n = 3 wells per experiment, 2–3 independent experiments
Protocol: as §1, §2, §3

[3] = tested on: H4 cells; experiment: MTT cytotoxicity assay, H4 cells; type: cell-based, human; settings: 24 h treatment, mean ± SEM, n = 3 wells per experiment, 2–3 independent experiments
Protocol: as §1, §2, §3

[4] = tested on: caspase-3 and PARP cleavage; experiment: Western blot of caspase-3 activation and PARP cleavage in U87-MG, SHP-77 and H4 cells; type: cell-based, human; settings: 24 h
Protocol: To verify whether the cytotoxic effects of the new B1R antagonists are mediated by apoptosis, the activation level of caspase-3, a key enzyme in the apoptosis process, and PARP protein, the caspase-3 substrate, were determined by Western blot analysis.
Cisplatin at 25 µM was used to induce control apoptosis. No significant change in the amount of cleaved PARP or caspase-3 activation was observed after B1R antagonist treatment compared with untreated cells (Fig. 5).
Figure 5 The effects of B1R antagonists and cisplatin on the expression levels of caspase-3 and PARP cleavage in cell lines U87-MG, SHP-77, and H4 were determined by Western blotting. 1. control cells; 2. cisplatin (25 μM); 3. […] BK11 (50 μM). […] Representative Western blot images showing expression of β-actin were used as a reference protein. Each picture represents a vertically cut part of nitrocellulose membranes. The membranes were cut before antibody application, considering the size margin according to the size of the molecular weight marker.
Western blot analysis was performed to evaluate the potential mechanism of cytotoxic activity of the antagonists of BK in cancer cell lines H4, U87-MG, and SHP-77 (see Supporting Information for details). Detection was performed using Pierce ECL Western blotting substrate (Thermo Fisher Scientific) and a Syngene GeneGnomeXRQ chemiluminescence analysis system. […]

[5] = tested on: mock T-REx 293 cell line; experiment: IP1 assay in mock T-REx 293 cells without transfection of bradykinin receptors; type: cell-based, human; settings: various doses of BK
Protocol: (§4) The cell pellet was suspended in Hanks-HEPES (130 mM NaCl, 5.4 mM KCl, 1.8 mM CaCl2, 0.8 mM MgSO4, 0.9 mM NaH2PO4, 20 mM HEPES, LiCl 50 mM, and 3.25 mM glucose; pH 7.4).

[6] = tested on: B1R in U87-MG cell line; experiment: Functional assay: shift of BK dose-response curve by B1R antagonist, U87-MG cells; type: cell-based, human; settings: antagonist 10 µM
Text: (§5) In further experiments, the U87-MG, SHP-77, and H4 cell lines were used for the functional assay with BK and the reference B1R antagonist. As shown in Fig. 13S in Supplementary File, all three cell lines expressed the functional B1R protein and its activity according to the mRNA level shown in Fig. 4. The obtained results are consistent with previous findings showing the expression of functional B1R and B2R genes and proteins in human glioblastoma cells U87-MG[32],[33]. In other studies, cellular expression of B1 and B2 receptors was detected in five different subtypes of human lung carcinomas (adenocarcinoma, squamous cell carcinoma, large cell carcinoma, small cell carcinoma, and carcinoid tumors)[34]. In addition, B2R has also been characterized in the cell line SHP-77[35]. However, to our knowledge, this is the first time that we have detected B1R and B2R gene expression in H4 cells of human brain neuroglioma and B1R in SHP-77 cells of human lung carcinoma.
(§6) Figure 13S. […] All three cell lines expressed the functional protein B1R.

[7] = tested on: B1R in H4 cell line; experiment: Functional assay: shift of BK dose-response curve by B1R antagonist, H4 cells; type: cell-based, human; settings: antagonist 10 µM
Text: as §5, §6

[8] = tested on: B1R in SHP-77 cell line; experiment: Functional assay: shift of BK dose-response curve by B1R antagonist, SHP-77 cells; type: cell-based, human; settings: antagonist 10 µM
Text: as §5, §6

[9] = target: T1, B1R (Homo sapiens, UniProt P46663); experiment: IP-one (intracellular IP1) assay in T-REx 293/B1R cell line; type: cell-based
T1 construct: Thermo Fisher Scientific (T-REx 293 cells)
T1 sequence (P46663 1-353): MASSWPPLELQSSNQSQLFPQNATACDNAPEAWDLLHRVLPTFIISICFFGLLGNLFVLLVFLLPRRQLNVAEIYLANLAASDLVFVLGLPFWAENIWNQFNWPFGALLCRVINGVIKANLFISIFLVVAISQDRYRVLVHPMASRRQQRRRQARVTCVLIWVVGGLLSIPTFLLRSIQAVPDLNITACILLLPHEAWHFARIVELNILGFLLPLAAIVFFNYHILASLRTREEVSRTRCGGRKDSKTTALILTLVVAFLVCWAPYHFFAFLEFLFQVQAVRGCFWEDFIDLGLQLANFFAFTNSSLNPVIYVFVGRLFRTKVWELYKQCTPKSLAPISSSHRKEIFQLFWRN
Protocol: Cell culture and transfection.
as §4
Data were analyzed using GraphPad Prism version 5.04 for Windows (GraphPad software).

| Molecule | MTT, percentage of control, SHP-77 ([1]; 25 µM) | MTT, percentage of control, SHP-77 ([1]; 100 µM) | MTT, percentage of control, U87-MG ([2]; 25 µM) | MTT, percentage of control, U87-MG ([2]; 100 µM) | MTT, percentage of control, H4 ([3]; 25 µM) | MTT, percentage of control, H4 ([3]; 100 µM) | also measured |
| --- | --- | --- | --- | --- | --- | --- | --- |
| N.N.[Cl][Pt][Cl] [Cisplatin] | 53.631 ± 12.052 % of control | 37.989 ± 11.626 % of control | 50.357 ± 4.97 % of control | 32.63 ± 6.934 % of control | 25.389 ± 3.71 % of control | 5.809 ± 1.488 % of control | caspase-3 activation and PARP cleavage (Western blot) ([4]; 25 μM, positive control of apoptosis): induction of caspase-3 and processed PARP fragments |
| RPPGFSPFR-OH [BK, Bradykinin] |  |  |  |  |  |  | response in IP1 assay, mock cells [5]: did not respond |
| CC[C@H](C)[C@H](NC(=O)[C@@H](Cc1ccc2ccccc2c1)NC(=O)[C@H](CO)NC(=O)[C@](C)(Cc1ccccc1)NC(=O)CNC(=O)[C@@H]1CCCN1C(=O)[C@@H]1CCCN1C(=O)[C@H](CCCNC(=N)N)NC(=O)[C@H](CCCCN)NC(C)=O)C(=O)O [R 892] (Ac-KRPPG[αMeF]S[d2Nal]I-OH; N-terminus and C-terminus assumed) |  |  |  |  |  |  | shift of BK EC50 after treatment with the B1R antagonist [6]: over 3 times; shift of BK EC50 after treatment with the B1R antagonist [7]: < 2 x; shift of BK EC50 after treatment with the B1R antagonist [8]: 2,5 x; EC50 ([9]; T-REx 293/B1R cells, in the presence of EC80 BK (1250 nM), SD ± 66 nM, read-out: EC50 value for decrease of IP1 levels (B1R antagonist)): 69 nM |
| N=C(N)NCCC[C@H](NC(=O)[C@H](Cc1cccs1)NC(=O)[C@H]1CCCCN1C(=O)[C@H](CO)NC(=O)[C@H](Cc1cccs1)NC(=O)CNC(=O)[C@@H]1C[C@@H](O)CN1C(=O)[C@@H]1CCCN1C(=O)[C@H](CCCNC(=N)N)NC(=O)[C@@H](CCCNC(=N)N)NC(=O)CC12CC3CC(CC(C3)C1)C2)C(=O)O [BK11] | 96.421 ± 3.474 % of control | 85.391 ± 5.646 % of control | 96.125 ± 1.241 % of control | 81.07 ± 4.542 % of control | 94.235 ± 3.538 % of control | 65.668 ± 3.305 % of control | caspase-3 activation and PARP cleavage (Western blot) ([4]; 50 μM, compared with untreated control cells): no induction of caspase-3 and PARP; B1R screening, effect in the presence of BK (antagonist mode) ([9]; T-REx 293/B1R cells, 25 μM analog with BK at EC80): antagonistic effect |
| RPPGFSPFR [BK, Bradykinin] |  |  |  |  |  |  | EC50 [9]: 1300 nM |
